Assay results from US20120076762A1, “INDUCED PLURIPOTENT STEM CELL GENERATION USING TWO FACTORS AND P53 INACTIVATION” (THE SALK INSTITUTE FOR BIOLOGICAL STUDIES, priority 2009, published 2012).
Marks after values point to notes of the source that are not given here.

How the values were obtained:
[1] = test system: human primary keratinocytes; assay: Reprogramming of human primary keratinocytes (AP-positive hES-like colonies); format: cell-based
From the text: FIG. 5: Downregulation of p53 activity increases reprogramming efficiency of human somatic cells. (FIG. 5a) Human embryonic fibroblasts were infected with retroviruses encoding Oct4/Sox2/Klf4 (3-F) or Oct4/Sox2/Klf4/c-Myc (4-F) factors in combination with lentiviruses expressing control- or p53-shRNA. Emerging colonies of iPS cells were visualized by immunostaining with anti-Nanog antibody using an ABC method. […] (FIG. 5b) Human primary keratinocytes were co-infected with 4-F and retroviruses expressing GFP or p53-DD. 5×10^4 infected cells were plated on 10-cm dishes and stained for AP activity after 2 weeks. […] Actin was used as a loading control. (FIG. 5c) The bars represent the average number of iPS-like colonies obtained from 10^4 keratinocytes reprogrammed with 3-F or 4-F and retroviruses encoding GFP or p53-DD, in the absence or presence of the p53 agonist Nutlin3a (n=3). iPS-like colonies were scored as having hES-like morphology and positive AP staining. Due to the numerous colonies generated in 4-F p53-DD keratinocytes, quantification was done using 10^4 cells. […]

[2] = test system: Mouse embryonic fibroblasts (MEFs); assay: Reprogramming of mouse embryonic fibroblasts to iPS cells (Nanog-positive colonies); format: cell-based; details: for Effect on reprogramming / Fold increase in reprogramming / Nanog-positive colony formation vs control: 3-F; for Direction and grade of change in reprogramming efficiency (arrows) / Reprogramming efficiency (Nanog-positive colonies / infected cells) / Fold increase in reprogramming / Nanog-positive colony formation vs control: MEFs
From the text: (§1) VSV-G viruses were produced in HEK293T cells. For pMX-based and pMSCV-based retroviruses, vectors were transfected using CaPO4 or lipofectamin, following the manufacturers' directions. One day after transfection, culture medium was changed to new medium. For lentivirus, pBOBI-based^34 or pLVTHM-based^37 vectors were transfected by Lipofectamine™ 2000 (Invitrogen) according to the manufacturer's protocol. Six hours after transfection, the DNA-lipofectamine-complex was removed and the medium was replaced the next day. Two days after transfection, the supernatant containing viruses was collected and filtered through a 0.45 μm filter. Mouse iPS cells were induced as previously described^38,39. Briefly, mouse embryonic fibroblasts (passage 3 to 5) were infected (day 0) with pMX-based retroviruses together with pLVTHM-based lentivirus for shRNAs or pBOBI-based lentivirus for Bcl-2. On day 2, cells were passed onto new gelatin-coated plates. Medium was changed every 2 days. On day 12 to 14, cells were fixed for immunofluorescence study. For the Nutlin3a experiments, cells were treated starting from day 4. Reprogramming of human embryonic fibroblasts (IMR90) was done as previously described^2′^3. Briefly, IMR90 fibroblasts (passage 7 to 9) were infected (day 0) with pMSCV-based retroviruses+pLVTHM-based lentiviruses for p53 shRNA. On day 4 or 5, cells were passed onto feeder MEFs. Medium was changed every day. Around 3 weeks after infection, cells were fixed for immunofluorescence studies. Reprogramming of human primary keratinocytes was carried out essentially as described^6. Cells were co-infected with retroviral supernatants containing 3 or 4 reprogramming factors and p53-DD or GFP at a 1:2 ratio. To assess the reprogramming efficiency, cells were trypsinized 3 days after retroviral infection and 10^4 cells were plated onto 6-cm tissue culture dishes on top of irradiated human foreskin fibroblasts with hES cell medium.
The number of Nanog-positive colonies was calculated after immunostaining at d12-14. The total number of Nanog-positive colonies was divided by the number of infected cells. Error numbers indicate s.d. The term “s.d.” refers in the customary sense to standard deviation. The term “s.e.” refers in the customary sense to standard error. Student's t-tests were performed for statistical analysis. p=0.007 (p53-shRNA vs mock, n=4 in each), p=0.0006 (p53−/− vs WT, n=3 in each), p=0.009 (p21-shRNA vs mock, n=4 in each), p=0.0005 (Arf-shRNA vs mock, n=3 in each), p=0.028 (Arf/Ink4a-shRNA vs mock, n=3 in each), p=0.010 (Ctl(solvent) vs Nutlin-3(10 μM), n=3 in each), p=0.045 (3SA/3SA vs WT, n=3 in each), p=0.022 (Bcl-2 vs mock, n=4 in each), and p=0.012 (c-Myc versus mock, n=4 in each).

[3] = test system: Arf; assay: Arf level after shRNA in MEFs (Western blot); format: cell-based, mouse; details: lentiviral shRNA, day 4
From the text: FIG. 2: Modulation of p53 activity alters reprogramming efficiency. (FIG. 2a) Fold change in the number of 3-F induced Nanog-positive colonies by Arf shRNA compared to control shRNA (n=3). Protein levels of Arf, Ink4a and α-Tubulin (loading control) on day 4 after infection are shown. (FIG. 2b) Fold change in the number of 3-F induced Nanog-positive colonies by Arf/Ink4a shRNA compared to control shRNA (n=3). Protein levels of Arf, Ink4a and α-Tubulin (loading control) on day 4 after infection are shown. (FIG. 2c) MEFs isolated from wild type (+/+), Mdmx-3SA heterozygous (3SA/+) and homozygous (3SA/3SA) mice were exposed to 5Gy of gamma-irradiation for 4 hours. p21 mRNA levels were analyzed by QPCR. Results were normalized to untreated WT samples for fold induction. (FIG. 2d) 3-F induced Nanog-positive colonies in wild type (+/+) and homozygous (3SA/3SA) mice (n=3).
Cells were washed once in PBS and lysed in 2×SDS-PAGE sample buffer without 2-mercaptoethanol and glycerol. Lysates were briefly sonicated and cleared by centrifugation. The protein concentration was determined by a BCA Protein Assay Kit (Thermo Scientific). Lysates were then mixed with 2-mercaptoethanol, BPB and glycerol, and boiled. Equal amounts of proteins were subjected to SDS-PAGE. […] Quantitative PCR was performed using SYBR® GREEN PCR Master Mix (Applied Biosystems).

[4] = test system: p21; assay: p21 expression after shRNA in MEFs; format: cell-based, mouse; details: lentiviral shRNA
Protocol: FIG. 1: Increased generation of iPS cells by blocking p53 and p21. (FIG. 1a) Mouse embryonic fibroblasts (MEFs) were infected by retroviruses encoding 3 transcription factors (Oct4/Sox2/Klf4), 2 factors (Oct4/Sox2), Klf4, c-Myc or GFP. Four days after infection, the protein levels of p53, Arf, and p21 were analyzed by Western Blotting. α-tubulin was used as a loading control. (FIG. 1b) Mouse embryonic fibroblasts (MEFs) were infected by retroviruses encoding three transcription factors (Oct4/Sox2/Klf4) in combination with mock, control shRNA (GFP) and p53 shRNA (#1 and #2). Emerging colonies of iPS cells were visualized by immunostaining with anti-Nanog antibody using an Avidin Biotin Complex (ABC) method. (FIG. 1c) The fold change in the number of Nanog-positive colonies compared to mock (n=4). For all figures in this study, error bars indicate s.d. (FIG. 1d) Effect of Nutlin 3a on the number of Nanog-positive colonies by 3 factors in combination with mock, p53, and p21 shRNA. Cells were treated by Nutlin 3a (0, 3, 10 μM) starting from day 4. […]
Cells were washed once in PBS and lysed in 2×SDS-PAGE sample buffer without 2-mercaptoethanol and glycerol. […] The protein concentration was determined by a BCA Protein Assay Kit (Thermo Scientific). […] Quantitative PCR was performed using SYBR® GREEN PCR Master Mix (Applied Biosystems).

[5] = test system: human embryonic fibroblasts (HEFs, IMR90); assay: Reprogramming of human embryonic fibroblasts (Nanog- or Tra1-81-positive colonies); format: cell-based
From the text: as §1, with “.” for “VSV-G viruses were produced in HEK293T cells.”
The number of Nanog- or Tral-81-positive colonies was calculated after immunostaining at dl 8-27. No colonies were observed from mock +4-F or 3-F cells in all trials. The total number of colonies was divided by the number of infected cells. Error numbers indicate s.d (n=4).

[6] = 3F (Oct4/Sox2/Klf4), d12-14, error = s.d.

`COc1ccc(C2=N[C@@H](c3ccc(Cl)cc3)[C@@H](c3ccc(Cl)cc3)N2C(=O)N2CCNC(=O)C2)c(OC(C)C)c1` [Nutlin3a] was tested, and the Effect on reprogramming ([1]; 3-F or 4-F p53-DD expressing keratinocytes) was “inability of Nutlin3a to reduce reprogramming”, the “Effect on reprogramming efficiency” value ([1]; human keratinocytes, 3-F or 4-F) was “markedly reduced the reprogramming efficiency” and the “Effect on iPS cell formation” value ([2]; 3-F MEFs with p53 reduced by most effective shRNA, 0, 3, 10 μM from day 4) was “dose-dependent decrease”. The Effect on reprogramming ([2]; p53(+/+) MEFs) was “dramatically reduced reprogramming”, the Effect on reprogramming ([2]; p53-null (−/−) MEFs) was “did not have any effects” and the “Direction and grade of change in reprogramming efficiency (arrows)” value (“Direction and grade of change” below) ([2]; 3F, Nutlin-3 10 μM vs solvent) was “↓↓”. The “Reprogramming efficiency (Nanog-positive colonies / infected cells)” value ([2]; 3F, Nutlin-3 10 μM vs solvent, treated from day 4, error = s.d.) was 0.007 + 0.008% vs 0.114 + 0.054%.

In the case of “Arf/Ink4a shRNA: shRNA sequence AATGGCTGGATTGTTTAAA, SEQ ID NO: 6”, the “Reprogramming efficiency (Nanog-positive colonies / infected cells)” value [2, 6] is reported as 0.366 ± 0.144% vs 0.114 + 0.054% and the “Direction and grade of change” value ([2]; 3F, vs control) is reported as “↑↑”.

“Arf shRNA: shRNA sequence CACCGGAATCCTGGACCAG, SEQ ID NO: 5” was tested, and the “Reduction of Arf levels” value [3] was 2-4 fold, the “Fold increase in reprogramming / Nanog-positive colony formation vs control” value [2] was “approximately 2 fold” and the “Reprogramming efficiency (Nanog-positive colonies / infected cells)” value [2, 6] was 0.163 ± 0.013% vs 0.085 + 0.083%. The “Direction and grade of change” value ([2]; 3F, vs control) was “↑”.

With “p21 shRNA: shRNA sequence TTAGGACTCAACCGTAATA, SEQ ID NO: 4” the “Reduction of p21 expression” value [4] was 3-4 fold, the “Fold increase in reprogramming / Nanog-positive colony formation vs control” value [2] was “approximately 3 fold” and the “Reprogramming efficiency (Nanog-positive colonies / infected cells)” value [2, 6] was 0.359 ± 0.144% vs 0.114 + 0.054%. For the same compound, the “Direction and grade of change” value ([2]; 3F, vs control) was “↑↑↑”.

In the case of “p53shRNA: lentiviral shRNA against human p53, sequence GACTCCAGTGGTAATCTAC, SEQ ID NO: 7 (lentiviral vector)”, the “Actual number of Nanog-positive colonies” value ([5]; 3-F, Trial 1) is reported as 10 colonies/3 × 10^4 cells (p53shRNA), the “Actual number of Nanog-positive colonies” value ([5]; 3-F, Trial 2) is reported as 2 colonies/1 × 10^4 cells (p53shRNA) and the “Reprogramming efficiency of HEFs” value ([5]; 3-F, average of 2 independent experiments) is reported as 0.027% *. The “Actual number of Nanog-positive colonies” value ([5]; 4-F, Trial 1) was 86 colonies/2 × 10^4 cells (p53shRNA), the “Actual number of Nanog-positive colonies” value ([5]; 4-F, Trial 2) was 13 colonies/2 × 10^4 cells (p53shRNA) and the “Actual number of Nanog-positive colonies” value ([5]; 4-F, Trial 3) was 19 colonies/2 × 10^4 cells (p53shRNA). For the same compound, the “Actual number of Nanog-positive colonies” value ([5]; 4-F, Trial 4) was 4 colonies/2 × 10^4 cells (p53shRNA) and the “Reprogramming efficiency of HEFs” value ([5]; 4-F, ± s.d. (n=4)) was 0.153 ± 0.188%.
